Here are results for seven compounds from US20030195212A1, “Novel melanocortin receptor agonists and antagonists” (priority 2000, published 2003).

The target in assay [1] is T1, MC1 receptor (Mus musculus, UniProt Q01727).
T1 construct: B16 mouse melanoma cells were used, which endogenously express the (mouse) MC1 receptor; endogenous in cells; host or cells: B16 mouse melanoma cells
Kind of assay: Affinity for the MC1-receptor, displacement of I125-NDP-MSH. It is filed as binding. Particulars: B16 mouse melanoma cells, I125-NDP-MSH ligand; read-out: Affinity for MC-receptors Ki MC1. Here is the method:
Test 1. Affinity for the MC1-Receptor
The binding assay was carried out essentially as described by Lunec et al Melanoma Res 1992; 2; 5-12 using I^125α-NDP-MSH as ligand.
(§1) Essentially, the affinity of the compounds to the different receptors were determined using either insect cells (Sf9) or COS cells, which were transfected with recombinant human MC3, MC4 or MC5 receptors. For the determination of the affinity to the MC1 receptor, B16 mouse melanoma cells were used, which endogenously express the (mouse) MC1 receptor.
(§2) The compounds were tested at different concentrations for their ability to displace I^125-labelled NDP-MSH from the respective receptor. Incubation was performed in 96-well plates using 50,000 cells/well (Sf9 or COS cells) up to 200,000 cells/well (mouse melanoma cells).
(§3) The test compound or standard (NDP-MSH) was added in an appropriate concentration (generally between 10^−4 M and 10^−12 M) together with labelled tracer (approx. 50,000 cpm/well) and incubation was performed for 2 hours (at room temperature for Sf 9 cells and at +37° C. for COS cells and mouse melanoma cells).
(§4) After the incubation, the cells were washed twice to get rid of excess tracer and compound, and the cells were lysed with 0.1M NaOH. The lysate was counted in a gamma-counter, binding was calculated and the affinity then determined.

Assay [2] has as its target T2, human MC3 receptor (Homo sapiens, UniProt P41968).
T2 construct: expressed in transfected cells; host or cells: Sf9 insect cells or COS cells
Kind of assay: Affinity for the MC3-receptor, displacement of I125-NDP-MSH. It is filed as binding. Particulars: Sf9 or COS cells transfected with human MC3, I125-NDP-MSH ligand; for Ki: read-out: Affinity for MC-receptors Ki MC3. Here is the method: (§5) Test 2. Affinity for the MC3-Receptors, the MC4-Receptors and the MC5-Receptors
(§6) The binding assays were carried out essentially as described by Szardenings et al., J. Biol. Chem. 1997; 272; 27943-27948 and Schiöth et al., FEBS Lett. 1997; 410; 223-228 using I^125-NDP-α-MSH as ligand.
as §1, §2, §3, §4

Assay [3] deals with T3, human MC4 receptor (Homo sapiens, UniProt P32245).
T3 construct: expressed in transfected cells; host or cells: Sf9 insect cells or COS cells
Kind of assay: Affinity for the MC4-receptor, displacement of I125-NDP-MSH. It is filed as binding. Particulars: Sf9 or COS cells transfected with human MC4, I125-NDP-MSH ligand; read-out: Affinity for MC-receptors Ki MC4. Here is the method:
as §5, §6, §1, §2, §3, §4

The target of assay [4] is T4, human MC5 receptor (Homo sapiens, UniProt P33032).
T4 construct: expressed in transfected cells; host or cells: Sf9 insect cells or COS cells
Kind of assay: Affinity for the MC5-receptor, displacement of I125-NDP-MSH. The format is binding. Particulars: Sf9 or COS cells transfected with human MC5, I125-NDP-MSH ligand; read-out: Affinity for MC-receptors Ki MC5. How it is done: as §5, §6, §1, §2, §3, §4

In assay [5] the target is T1, MC1 receptor. Kind of assay: cAMP assay, MC1 receptor (mouse melanoma B16 cells). It is filed as cell-based. Particulars: 20 minutes at +37° C. Here is the method: (§7) Test 3. cAMP Assay p The stimulation of cAMP was carried out essentially as described by Schiöth et al., Br. J. Pharmacol. 1998; 124; 75-82.
(§8) Essentially, the effects of the compounds were tested […] for their ability to stimulate the production of cAMP. The cells used were the same ones that were used for the binding assays (see above), i.e. for the MC1 receptor mouse melanoma B16 cells were used and for the MC3, MC4 and MC5 receptors, Sf9 or COS cells, transfected with the respective human receptors.
(§9) Cyclic AMP was stimulated by the addition of the compounds at different concentrations in the presence of a phosphodiesterase inhibitor, during a period of 20 minutes at +37° C. cAMP was extracted with PCA, neutralised with KOH and the mixture was then centrifuged.
(§10) The concentration of cAMP was determined using a binding assay comprising binding protein (from bovine adrenals). Tritiated cAMP, used as tracer, and extracts (from above) in different dilutions were incubated at +4° C. for 120-150 minutes. The cAMP in the unknown samples displaced the labelled cAMP from binding to the binding protein. The binding protein-cAMP/tracer complex was harvested using a filter technique and the filters were counted using a beta-counter. The concentrations of cAMP in the unknown extracts were calculated using a standard curve of known concentrations.

For assay [6], the target named is T3, human MC4 receptor. Put plainly: cAMP assay, MC4 receptor (transfected Sf9 or COS cells). The format is cell-based. Particulars: 20 minutes at +37° C. Here is the method: as §7, §8, §9, §10
Assay [7] deals with T4, human MC5 receptor. Put plainly: cAMP assay, MC5 receptor (transfected Sf9 or COS cells). Particulars: 20 minutes at +37° C. The format is cell-based. How it is done: as §7, §8, §9, §10
In assay [8] the target is T2, human MC3 receptor. Kind of assay: cAMP assay, MC3 receptor (transfected Sf9 or COS cells). It is filed as cell-based. Particulars: 20 minutes at +37° C. How it is done: as §7, §8, §9, §10
The test system of assay [9] is Female BALB/c mice. Kind of assay: Anti-inflammatory effects: total number of white blood cells in DNFB model. The format is in vivo, mouse. Particulars: i.p., 0.05-0.75 mg/kg, blood collected 24 hours after last challenge. How it is done: Anti-Inflammatory Effects
Female BALB/c mice (weight 20-22 g) were sensitized by treatment of the shaved abdomen with 30 μl of 0.5% 2,4-dinitrofluorobenzene (DNFB). After 4 days they were challenged with 10 μl of 0.3% DNFB to the paw. The unchallenged mice paws served as a control. Twenty-four hours after the last challenge, the difference in paws weight were determined as an indicator of the inflammation (paw oedema).
Mice were treated as the control but were additionally injected i.p. with various doses (0.05, 0.15 or 0.25, 0.375, 0.5 and 0.75 mg/kg) of each compounds two hours before sensitization (day 0) and the same dose was administered repeatedly after sensitization during four consecutive days. The paw edema inhibition as described above. Groups containing at least 10 mice each were used for all experiments.
Blood analysis was carried out using the QBC® Autoread™ Plus & QBC® Accutube System (Becton Dickinson). In all cases blood samples were collected twenty-four hours after the last challenge.

Assay [10] relates to Sprague-Dawley, male rats. Put plainly: In vivo effects on food intake, nocturnal protocol, icv. On the set-up: species or system rat. The source says: (§11) In Vivo Effects on Food Intake
(§12) Compounds have been tested for their effects on food intake and body weight in rats.
(§13) In order to investigate the agonistic effect, i.e. decrease in food intake, of compounds, the nocturnal protocol was used. Sprague-Dawley, male rats were used, which were cannulated intracerebroventricularly. Stainless steel guide cannulae were placed in the lateral ventricle and fixed in the skull. Animals were acclimatized for a week before the experiments took place. After the experiments were done, the rats were killed and placement of the cannulae were checked.
(§14) Rats were cannulated as described above. They were used without prior starvation, and compounds were administered at 5 pm in a total volume of 5 μl. Doses of Compound 2:4 used were 1, 4 and 10 nmoles. Food intake was measured at 3, 15 and 24 hours after dosing, and body weight was recorded at 24 hours. For comparison, the well known MC4 receptor agonist, Melanotan II (MTII) was used, at a dose of 1 nmole.

In assay [11] the test system is Sprague-Dawley, male rats. Kind of assay: In vivo effects on body weight gain, nocturnal protocol, icv. Details: species or system rat. Particulars: icv, 1, 4 and 10 nmoles, recorded at 24 hours.
Source text: as §11, §12, §13, §14

T3 sequence (P32245 whole entry): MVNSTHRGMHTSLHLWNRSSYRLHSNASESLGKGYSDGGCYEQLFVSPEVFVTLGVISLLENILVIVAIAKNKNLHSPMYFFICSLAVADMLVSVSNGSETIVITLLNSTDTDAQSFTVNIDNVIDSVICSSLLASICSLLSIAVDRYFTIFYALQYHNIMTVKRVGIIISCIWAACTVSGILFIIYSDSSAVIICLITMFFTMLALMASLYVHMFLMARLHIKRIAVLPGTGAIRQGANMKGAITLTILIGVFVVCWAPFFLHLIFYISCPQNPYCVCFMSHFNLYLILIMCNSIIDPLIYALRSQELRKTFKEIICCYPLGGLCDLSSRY
T2 sequence (P41968 whole entry): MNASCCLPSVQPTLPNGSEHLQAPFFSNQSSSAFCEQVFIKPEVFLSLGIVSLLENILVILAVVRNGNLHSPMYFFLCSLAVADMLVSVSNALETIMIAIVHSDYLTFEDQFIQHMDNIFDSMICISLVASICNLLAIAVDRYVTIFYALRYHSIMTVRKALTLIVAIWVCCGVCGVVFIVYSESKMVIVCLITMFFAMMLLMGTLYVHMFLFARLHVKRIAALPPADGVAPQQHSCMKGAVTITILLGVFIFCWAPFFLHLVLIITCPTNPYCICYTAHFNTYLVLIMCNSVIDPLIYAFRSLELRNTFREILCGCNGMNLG
T4 sequence (P33032 whole entry): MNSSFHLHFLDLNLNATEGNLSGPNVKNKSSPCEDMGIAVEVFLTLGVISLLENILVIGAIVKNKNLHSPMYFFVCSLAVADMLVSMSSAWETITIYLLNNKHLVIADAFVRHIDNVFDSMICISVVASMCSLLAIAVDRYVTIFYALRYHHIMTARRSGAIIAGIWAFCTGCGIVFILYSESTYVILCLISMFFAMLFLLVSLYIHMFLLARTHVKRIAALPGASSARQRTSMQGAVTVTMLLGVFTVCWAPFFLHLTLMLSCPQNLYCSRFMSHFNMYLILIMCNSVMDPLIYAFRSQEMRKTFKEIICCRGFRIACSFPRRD
T1 sequence (Q01727 whole entry): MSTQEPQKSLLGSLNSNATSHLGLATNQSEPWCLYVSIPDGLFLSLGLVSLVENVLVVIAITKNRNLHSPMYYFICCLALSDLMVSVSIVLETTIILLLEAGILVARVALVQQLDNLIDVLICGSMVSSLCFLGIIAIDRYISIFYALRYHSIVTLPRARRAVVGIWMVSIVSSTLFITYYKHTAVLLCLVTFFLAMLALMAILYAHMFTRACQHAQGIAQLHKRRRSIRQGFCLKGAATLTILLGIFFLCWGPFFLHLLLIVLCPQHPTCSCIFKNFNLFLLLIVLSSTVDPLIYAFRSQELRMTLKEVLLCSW

Turning to `NCCCNC(=O)C(Cc1c[nH]c2ccccc12)NC(=O)Cc1cccc2ccccc12` (centres unmarked) [1:6, N-(3-Amino-propyl)-3-(1H-indol-3-yl)-2-(2-naphthalen-1-yl-acetylamino)-propionamide], the Ki worked out at 12700 nM in assay [1], 37.1 µM in assay [2], 25.2 µM in [3] and 30.8 µM in assay [4]. Further, the “Influence on cAMP MC1c” value in assay [5] is recorded as 375 percentage of the baseline. Moreover, the “Influence on cAMP MC4c” value in assay [6] is recorded as 99 percentage of the baseline. In addition, the “Influence on cAMP MC5c” value in [7] is listed as 76 percentage of the baseline.

As for `CCn1c2ccccc2c2cc(NC(=O)C(Cc3c[nH]c4ccccc34)NC(=O)CCCNC(=N)N)ccc21` (centres unmarked) [2:6, N-[1-(9-Ethyl-9H-carbazol-3-ylcarbamoyl)-2-(1H-indol-3-yl)-ethyl]-4-guanidino-butyramide], the Ki in assay [1] amounted to 2700 nM; in assay [3], 20.8 µM; in assay [4] it was 17.9 µM. In addition, the “Affinity for MC-receptors Ki MC3” value in assay [2] is “nb”. The “Influence on cAMP MC1c” value in [5] is reported as 354 percentage of the baseline. In addition, the “Influence on cAMP MC4c” value in [6] is reported as 61 percentage of the baseline. For the same compound, the “Influence on cAMP MC5c” value in assay [7] was 117 percentage of the baseline.

Regarding `CCn1c2ccccc2c2cc(NC(=O)C(Cc3c[nH]c4ccccc34)NC(=O)CCN)ccc21` (centres unmarked) [2:14, 2-(3-Amino-propionylamino)-N-(9-ethyl-9H-carbazol-3-yl)-3-(1H-indol-3-yl)-propionamide], the “Influence on cAMP MC1c” value in [5] is recorded as 162 percentage of the baseline. The “Influence on cAMP MC3c” value in assay [8] is given as 116 percentage of the baseline. In addition, in assay [6], the “Influence on cAMP MC4c” value is listed as 237 percentage of the baseline. Moreover, the “Influence on cAMP MC5c” value in assay [7] is reported as 164 percentage of the baseline.

In the case of `N=C(N)NCCCCN(Cc1ccccc1)C(=O)C(Cc1c[nH]c2ccccc12)NC(=O)CCCc1ccccc1` (centres unmarked) [Compound 1:15, N-[1-[Benzyl-(4-guanidino-butyl)-carbamoyl]-2-(1H-indol-3-yl)-ethyl]-4-phenyl-butyramide], the Ki was 1300 nM in assay [1], 23.5 µM in [2], 5.6 µM in assay [3] and 35.6 µM in assay [4]. Besides, in assay [9], the “white blood cell count” value is on record as “clearly dose dependent”.

As for `N=C(N)NCCCCN(Cc1ccccc1)C(=O)C(Cc1c[nH]c2ccccc12)NC(=O)Cc1ccc2ccccc2c1` (centres unmarked) [Compound 1:17, N-Benzyl-N-(4-guanidino-butyl)-3-(1H-indol-3-yl)-2-(2-naphthalen-2-yl-acetylamino)-propionamide], the Ki in assay [1] stood at 600 nM; in [2], 35.3 µM; in assay [3], 3.1 µM; in assay [4], 43.7 µM. For the same compound, the “white blood cell count” value in assay [9] was “clearly dose dependent”.

On to `N=C(N)NCCCC(=O)NC(Cc1c[nH]c2ccccc12)C(=O)NCCc1c[nH]c2ccccc12` (centres unmarked) [Compound 2:4, 4-Guanidino-N-{2-(1H-indol-3-yl)-1-[2-(1H-indol-3-yl)-ethylcarbamoyl]-ethyl}-butyramide], for which the “effects at the highest dose compared with MTII” value in assay [10] (icv, 10 nmoles versus MTII 1 nmole, food intake and body weight gain) is on record as “in the same range as that observed with MTII”. Further, the food intake entry in assay [10] (icv, 1, 4 and 10 nmoles, measured at 3, 15 and 24 hours after dosing) was “the intermediate and the highest dose is significantly different from vehicle treated animals”. Also, the body weight gain entry in assay [11] is “dose dependent and significantly different from vehicle treated animals at the highest dose tested”.

`CCn1c2ccccc2c2cc(NC(=O)C(Cc3c[nH]c4ccccc34)NC(=O)CCCN)ccc21` (centres unmarked) [Compound 2:7, 4-Amino-N-[1-(9-ethyl-9H-carbazol-3-ylcarbamoyl)-2-(1H-indol-3-yI)-ethyl]-butyramide]: the Ki is 2600 nM in assay [1], 18.1 µM in assay [3] and 25.1 µM in assay [4]. In addition, the “Affinity for MC-receptors Ki MC3” value in assay [2] was “nb”. For the same compound, the “Influence on cAMP MC1c” value in [5] was 315 percentage of the baseline. In addition, the “Influence on cAMP MC4c” value in assay [6] is 79 percentage of the baseline. Further, in [7], the “Influence on cAMP MC5c” value was 154 percentage of the baseline.
